Experimental data taken from patent US6781000B1, “Alpha-ketoamide inhibitors of 20S proteasome” (CV Theurapeutics, Inc., priority 1998, dated 2004).

Target: T1, chymotrypsin-like activity of 20S proteasome (Bos taurus, UniProt Q2TBX6+Q32KL2)
T1 construct: was purified to homogeneity from bovine brain according to published methods; from tissue; host or cells: bovine brain
Test: 20S proteasome chymotryptic activity inhibition assay (Suc-Leu-Leu-Val-Tyr-AMC cleavage)
Assay type: biochemical
Conditions: 2 μg 20S proteasome from bovine brain, 50 μM fluorogenic substrate, 15 minutes at 37° C., pH7.5
Procedure: Compounds of this invention prepared according to the method of Example 1 were tested as follows. The 20S catalytic subunit of the proteasome (also known as the multicatalytic proteinase complex) was purified to homogeneity from bovine brain according to published methods (Wilk S. and Orlowski,M 1983, 40 842 J.Neurochem). The chymotryptic activity of the complex is measured by the increase in fluorescence following cleavage of the substrate peptide succinyl-leucine-leucine-valine-tyrosine-7-amino-4methyl coumarin. The standard in vitro assay consists of 2 μg 20S proteasome, 0.1-100 μg/ml proteasome inhibitor in 200 μl 50 mM HEPES, containing 0.1% sodium dodecyl sulphate, pH7.5. The proteolytic reaction is initiated by the addition of 50 μM flourogenic peptide substrate and allowed to progress for 15 minutes at 37° C. The reaction is terminated by the addition of 100 μL of 100 mM acetate buffer, pH4.0. The rate of proteolysis is directly proportional to the amount of liberated aminomethylcoumarin which is measured by fluorescent spectroscopy (EX 370 nm, EM 430 nm).

Row | SMILES | IC50 [µM] | IC50 for the inhibition of the chymotrypsin-like activity of 20S proteasome [µg/mL]
1 | CC(C)C[C@@H](NC(=O)C(=O)Cc1c[nH]c2ccccc12)C(=O)N[C@H](CC(C)C)C(=O)NCc1ccccc1 [Compound 3] | > 19.3 | –
2 | CC(C)CC(NC(=O)C(=O)Cc1c[nH]c2ccccc12)C(=O)NC(CC(C)C)C(=O)NCC(=O)O (stereo not drawn) [Compound 5] | > 20.6 | –
3 | CC(C)CC(NC(=O)C(=O)Cc1ccccc1)C(=O)NC(CC(C)C)C(=O)NCC(=O)O (stereo not drawn) [Compound 6] | – | >10
4 | CC(C)CC(NC(=O)C(=O)Cc1ccccc1)C(=O)NC(CC(C)C)C(=O)NCC(=O)NCc1ccccc1 (stereo not drawn) [Compound 7] | – | >10
5 | CC(C)CC(NC(=O)C(=O)c1c[nH]c2ccccc12)C(=O)NC(CC(C)C)C(=O)NCC(=O)NCc1ccccc1 (stereo not drawn) [Compound 8] | – | >10
6 | CC(C)CC(NC(=O)C(=O)Cc1c[nH]c2ccccc12)C(=O)NC(CC(C)C)C(=O)NCC(=O)NCc1ccccc1 (stereo not drawn) [Compound 9] | – | >10
7 | CC(C)CC(NC(=O)C(CC(C)C)NC(=O)C(=O)c1c[nH]c2ccccc12)C(=O)O (stereo not drawn) [Compound 10] | – | >10
8 | CC(C)CC(NC(=O)C(CC(C)C)NC(=O)C(=O)c1ccccc1)C(=O)O (stereo not drawn) [Compound 11] | – | >10
9 | CC(C)CC(NC(=O)C(=O)c1ccccc1)C(=O)NC(CC(C)C)C(=O)NCC(=O)O (stereo not drawn) [Compound 12] | – | >10
10 | CC(C)CC(NC(=O)C(=O)Cc1ccccc1)C(=O)NC(CC(C)C)C(=O)NC(Cc1ccccc1)C(=O)O (stereo not drawn) [Compound 13] | – | >10
11 | CC(C)CC(NC(=O)C(=O)c1c[nH]c2ccccc12)C(=O)NC(CC(C)C)C(=O)NC(Cc1ccccc1)C(=O)O (stereo not drawn) [Compound 14] | – | >10
12 | CC(C)C[C@H](NC(=O)C(=O)Cc1c[nH]c2ccccc12)C(=O)N[C@H](CC(C)C)C(=O)N[C@H](C(=O)O)C(C)C [Compound 17] | > 18.9 | –
13 | CC(C)C[C@H](NC(=O)[C@@H](CC(C)C)NC(=O)[C@H](CC(C)C)NC(=O)C(=O)Cc1c[nH]c2ccccc12)C(=O)O [Compound 18] | > 18.4 | –
14 | CCC(C)C(NC(=O)C(CC(C)C)NC(=O)C(CC(C)C)NC(=O)C(=O)Cc1c[nH]c2ccccc12)C(=O)O (stereo not drawn) [Compound 19] | – | >10
15 | CC(C)CC(NC(=O)C(=O)Cc1c[nH]c2ccccc12)C(=O)NC(CC(C)C)C(=O)NC(C)C(=O)O (stereo not drawn) [Compound 20] | – | >10
16 | CC(C)CC(NC(=O)C(=O)Cc1c[nH]c2ccccc12)C(=O)NC(CC(C)C)C(=O)NC(Cc1ccc(O)cc1)C(=O)O (stereo not drawn) [Compound 21] | – | >10
17 | CC(C)CC(NC(=O)C(CC(C)C)NC(=O)C(CC(C)C)NC(=O)C(=O)Cc1c[nH]c2ccccc12)C(=O)O (stereo not drawn) [Compound 22] | – | >10
18 | CC(C)C[C@H](NC(=O)[C@@H](CC(C)C)NC(=O)[C@@H](CC(C)C)NC(=O)C(=O)Cc1c[nH]c2ccccc12)C(=O)O [Compound 23] | > 18.4 | –
19 | CCC(C)C(NC(=O)C(CC(C)C)NC(=O)C(CC(C)C)NC(=O)C(=O)Cc1c[nH]c2ccccc12)C(=O)O (stereo not drawn) [Compound 24] | – | >10
20 | CC(C)CC(NC(=O)C(=O)Cc1c[nH]c2ccccc12)C(=O)NC(CC(C)C)C(=O)NC(C)C(=O)O (stereo not drawn) [Compound 25] | – | >10
21 | CC(C)CC(NC(=O)C(=O)Cc1c[nH]c2ccccc12)C(=O)NC(CC(C)C)C(=O)NC(Cc1ccc(O)cc1)C(=O)O (stereo not drawn) [Compound 26] | – | >10
22 | CC(C)CC(NC(=O)C(=O)Cc1c[nH]c2ccccc12)C(=O)NC(CC(C)C)C(=O)NC(C(=O)O)C(C)C (stereo not drawn) [Compound 27] | – | >10
23 | CC(C)CC(NC(=O)C(CC(C)C)NC(=O)C(CC(C)C)NC(=O)C(=O)Cc1c[nH]c2ccccc12)C(=O)O (stereo not drawn) [Compound 28] | – | >10
24 | CCC(C)C(NC(=O)C(CC(C)C)NC(=O)C(CC(C)C)NC(=O)C(=O)Cc1c[nH]c2ccccc12)C(=O)O (stereo not drawn) [Compound 29] | – | >10
25 | CC(C)CC(NC(=O)C(=O)Cc1c[nH]c2ccccc12)C(=O)NC(CC(C)C)C(=O)NC(C)C(=O)O (stereo not drawn) [Compound 30] | > 20 | –
26 | CC(C)CC(NC(=O)C(=O)Cc1c[nH]c2ccccc12)C(=O)NC(CC(C)C)C(=O)NC(Cc1ccc(O)cc1)C(=O)O (stereo not drawn) [Compound 31] | – | >10

Row | SMILES | IC50 [µM] | IC50 for the inhibition of the chymotrypsin-like activity of 20S proteasome [µg/mL]
27 | CC(C)CC(NC(=O)C(=O)Cc1c[nH]c2ccccc12)C(=O)NC(CC(C)C)C(=O)NC(C(=O)O)C(C)C (stereo not drawn) [Compound 32] | – | >10
28 | CC(C)CC(NC(=O)C(CC(C)C)NC(=O)C(CC(C)C)NC(=O)C(=O)Cc1c[nH]c2ccccc12)C(=O)O (stereo not drawn) [Compound 33] | – | >10
29 | CCC(C)C(NC(=O)C(CC(C)C)NC(=O)C(CC(C)C)NC(=O)C(=O)Cc1c[nH]c2ccccc12)C(=O)O (stereo not drawn) [Compound 34] | – | >10
30 | CC(C)CC(NC(=O)C(=O)Cc1c[nH]c2ccccc12)C(=O)NC(CC(C)C)C(=O)NC(C)C(=O)O (stereo not drawn) [Compound 35] | – | >10
31 | CC(C)CC(NC(=O)C(=O)Cc1c[nH]c2ccccc12)C(=O)NC(CC(C)C)C(=O)NC(Cc1ccc(O)cc1)C(=O)O (stereo not drawn) [Compound 36] | – | >10
32 | CC(C)CC(NC(=O)CNC(=O)C(=O)Cc1c[nH]c2ccccc12)C(=O)NC(C(=O)O)C(C)C (stereo not drawn) [Compound 37] | – | >10
33 | CC(C)CC(NC(=O)CCNC(=O)C(=O)Cc1c[nH]c2ccccc12)C(=O)NC(C(=O)O)C(C)C (stereo not drawn) [Compound 38] | – | >10
34 | CCCCC(NC(=O)C(=O)Cc1c[nH]c2ccccc12)C(=O)NC(CC(C)C)C(=O)NC(C(=O)O)C(C)C (stereo not drawn) [Compound 39] | – | >10
35 | CC(C)C[C@@H](NC(=O)[C@H](Cc1ccccc1)NC(=O)C(=O)Cc1c[nH]c2ccccc12)C(=O)N[C@H](C(=O)O)C(C)C [Compound 40] | > 17.8 | –
36 | CC(C)CC(NC(=O)C(NC(=O)C(=O)Cc1c[nH]c2ccccc12)C(C)O)C(=O)NC(C(=O)O)C(C)C (stereo not drawn) [Compound 41] | – | >10
37 | CC(C)CC(NC(=O)C(C)NC(=O)C(=O)Cc1c[nH]c2ccccc12)C(=O)NC(C(=O)O)C(C)C (stereo not drawn) [Compound 42] | – | >10
38 | CC(C)CC(NC(=O)C(CC(=O)O)NC(=O)C(=O)Cc1c[nH]c2ccccc12)C(=O)NC(C(=O)O)C(C)C (stereo not drawn) [Compound 43] | – | >10
39 | CC(C)CC(NC(=O)C(NC(=O)C(=O)Cc1c[nH]c2ccccc12)C(C)C)C(=O)NC(C(=O)O)C(C)C (stereo not drawn) [Compound 44] | – | >10
40 | CCCC(NC(=O)C(=O)Cc1c[nH]c2ccccc12)C(=O)NC(CC(C)C)C(=O)NC(C(=O)O)C(C)C (stereo not drawn) [Compound 45] | – | >10
41 | CC(C)CC(NC(=O)C(Cc1ccc(O)cc1)NC(=O)C(=O)Cc1c[nH]c2ccccc12)C(=O)NC(C(=O)O)C(C)C (stereo not drawn) [Compound 46] | – | >10
42 | CCC(C)C(NC(=O)C(=O)Cc1c[nH]c2ccccc12)C(=O)NC(CC(C)C)C(=O)NC(C(=O)O)C(C)C (stereo not drawn) [Compound 47] | – | >10
43 | CC(C)CC(NC(=O)C(CC1CCCCC1)NC(=O)C(=O)Cc1c[nH]c2ccccc12)C(=O)NC(C(=O)O)C(C)C (stereo not drawn) [Compound 48] | – | >10
44 | CC(C)CC(NC(=O)C(Cc1cccnc1)NC(=O)C(=O)Cc1c[nH]c2ccccc12)C(=O)NC(C(=O)O)C(C)C (stereo not drawn) [Compound 49] | – | >10
45 | CC(C)CC(NC(=O)C(Cc1ccc2ccccc2c1)NC(=O)C(=O)Cc1c[nH]c2ccccc12)C(=O)NC(C(=O)O)C(C)C (stereo not drawn) [Compound 50] | – | >10
46 | CC(C)C[C@@H](NC(=O)[C@H](Cc1ccc(-c2ccccc2)cc1)NC(=O)C(=O)Cc1c[nH]c2ccccc12)C(=O)N[C@H](C(=O)O)C(C)C [Compound 51] | > 15.7 | –
47 | CC(C)CC(NC(=O)CNC(=O)C(=O)Cc1c[nH]c2ccccc12)C(=O)NCC(=O)O (stereo not drawn) [Compound 52] | – | >10
48 | CC(C)CC(NC(=O)CCNC(=O)C(=O)Cc1c[nH]c2ccccc12)C(=O)NCC(=O)O (stereo not drawn) [Compound 53] | > 22.5 | –
49 | CCCCC(NC(=O)C(=O)Cc1c[nH]c2ccccc12)C(=O)NC(CC(C)C)C(=O)NCC(=O)O (stereo not drawn) [Compound 54] | – | >10
50 | CC(C)CC(NC(=O)C(Cc1ccccc1)NC(=O)C(=O)Cc1c[nH]c2ccccc12)C(=O)NCC(=O)O (stereo not drawn) [Compound 55] | – | >10
51 | CC(C)CC(NC(=O)C(NC(=O)C(=O)Cc1c[nH]c2ccccc12)C(C)O)C(=O)NCC(=O)O (stereo not drawn) [Compound 56] | – | >10
